Like-named read-outs stand apart in the source and are kept apart here. Marks after values point to notes of the source that are not given here.
Columns and labels:
[1] = Phase 2b study in de novo kidney transplant recipients (Example 3); type: in vivo, human
Method: De novo kidney transplant recipients were enrolled into a 6 month, Phase 2b, multi-center, randomized, open-label study. […] In addition, all subjects received induction immunosuppression with intravenous daclizumab or basiliximab (dosed per product labeling) and received concomitant treatment during the study with MMF and corticosteroids. […] Adverse reactions were recorded and renal graft rejection was assessed based on Banff classification. At 3-month and 6-month time points, adverse reactions were analyzed. Graft survival and patient survival were also recorded at the 6-month time point.

[2] = test system: norovirus; details: compared with CsA; cited from earlier work
[3] = test system: Calu-3 cells; details: plastic, Calu-3, FIG. 6D
[4] = VCS concentration after incubation in glass without cells, LC-MS/MS; type: physicochemical; details: for Conc: 3.2 μM supplied solution, without cells, glass
[5] = test system: Vero E6 cells; details: for concentrations without toxicity to uninfected cells: FIG. 1B; for concentration after which compound-related cytotoxicity was observed: Vero E6, 3 days
[6] = test system: SARS-CoV-2; assay: CPE reduction assay in Vero E6 cells with pharmaceutical formulations dissolved in DMSO (Example 6); type: cell-based; details: Severe acute respiratory syndrome coronavirus 2, Vero C1008, 72 h, read-out: EC50, inhibition of virus-induced cell death
[7] = Binding to plastic labware (coated or uncoated 96-well plates), remaining concentration by LC-MS/MS (Example 12); type: physicochemical
Method: Plastic labware was coated with three different coating agents: 100 mg/ml bovine serum albumin in PBS (BSA; Sigma), 1% polyethylene glycol 3350 in MilliQ water (PEG-3350; Sigma) and 0.2% polysorbate 40 in MilliQ water (Tween40; Fluka). In addition, the plastic materials with VCS by treating them with a 500 mM VCS solution in DMSO (Sigma). Labware, including all tubes, tips and culture plastics, was filled with blocking solution and incubated for 2 h at room temperature with rocking to homogenously coat the surfaces. After rinsing twice with MilliQ water, the items were left to dry at room temperature until further use in experiments. Solutions of 0.2 and 2 μM of VCS were prepared in EMEM-2% FCS and 100 μl of each VCS solution was incubated in coated 96-well plates. After a 2 h incubation at 37° C. the remaining VCS concentration was measured by validated LC-MS/MS.

[8] = test system: SARS-CoV-2; assay: microbe, parasite or virus in culture; type: cell-based
[9] = test system: Calu-3 cells; details: with cells, glass
[10] = test system: SARS-CoV-2; assay: microbe, parasite or virus in culture; type: cell-based; details: for EC50: Severe acute respiratory syndrome coronavirus 2, Vero C1008, FIG. 1C, Vero E6 CPE reduction, read-out: EC50 inhibition of SARS-CoV-2
[11] = type: physicochemical
[12] = test system: calcineurin; details: in vitro and in vivo; Kuglstatter et al.; cited from earlier work
[13] = test system: SARS-CoV-2; type: cell-based
[14] = test system: SARS-CoV-2; assay: CPE reduction assay in Vero E6 cells with pharmaceutical formulations (Example 8); type: cell-based; details: for EC50: Severe acute respiratory syndrome coronavirus 2, Vero C1008, 72 h, Vero E6, 3 days, read-out: EC50, inhibition of virus-induced cell death; for inhibitory / antiviral effect in CPE reduction assay: FIGS. 7D-7E
[15] = in vitro; details: African green monkey
[16] = test system: SARS-CoV-2; assay: SARS-CoV-2 viral load reduction assay in Vero E6 cells, plaque assay and NSP4 staining (Example 2); type: cell-based
[17] = test system: SARS-CoV-2; details: prednisone + voclosporin, expected
[18] = test system: Vero E6 cells; assay: Cytotoxicity in mock-infected Vero E6 cells, pure powder stocks (Example 11); type: cell-based, African green monkey; details: solution from pure powder
Method: CPE reductions assays in Vero E6 cells were performed, generally as described above, except that pre-incubation of cells with the tested compounds lasted 30 minutes. Plates were incubated for three days at 37° C. and cell viability was determined using a colorimetric assay, measuring the absorption at 495 nm. The EC50 and CC50 of each compound was determined and analysis of the resultant data using non-linear regression. For each compound, at least two independent experiments (each in quadruplicate) were completed.
CPE reduction assays were performed as described above, using high purity powders of immunosuppressive drugs solubilized in DMSO. Test stock solutions were prepared from pure powders of each compound. In the case of Neoral (CsA microemulsion), CsA powder, the most commonly used CsA derivative in KTR treatment, was evaluated.

[19] = test system: SARS-CoV-2; details: HuH7.5, Calu-3 and Vero cells; Dittmar et al.; cited from earlier work
[20] = test system: SARS-CoV-2 virions; details: 2 h at 37° C., below the limit of detection
[21] = Vero E6, MOI 0.015, three days, pharmaceutical formulation in DMSO, estimated concentrations
[22] = plastic labware, 0.8 μM stock solution, 2 h

C=C/C=C/C[C@@H](C)[C@@H](O)[C@H]1C(=O)N[C@@H](CC)C(=O)N(C)CC(=O)N(C)[C@@H](CC(C)C)C(=O)N[C@@H](C(C)C)C(=O)N(C)[C@@H](CC(C)C)C(=O)N[C@@H](C)C(=O)N[C@H](C)C(=O)N(C)[C@@H](CC(C)C)C(=O)N(C)[C@@H](CC(C)C)C(=O)N(C)[C@@H](C(C)C)C(=O)N1C [voclosporin]
NODAT (new onset of diabetes after transplant) incidence ([1]; high dose, 6 month): 17.7% | NODAT (new onset of diabetes after transplant) incidence ([1]; high dose, 6 month, listed as Voclosporin): 17.7% | Central BPAR (biopsy proven acute rejection), patients (incidence) ([1]; high dose, N = 87, 6 month post-transplantation): 2 (2.3%) | blood trough level ([1]; high-dose 0.8 mg/kg BID, months 0-3): 60 to 85 ng/mL | blood trough level ([1]; high-dose 0.8 mg/kg BID, months 3-6): 31 to 40 ng/mL | NODAT (new onset of diabetes after transplant) incidence ([1]; low dose, 6 month): 1.6% | NODAT (new onset of diabetes after transplant) incidence ([1]; low dose, 6 month, listed as Voclosporin): 1.6% | Central BPAR (biopsy proven acute rejection), patients (incidence) ([1]; low dose, N = 84, 6 month post-transplantation): 9 (10.7%) | blood trough level ([1]; low-dose 0.4 mg/kg BID, months 0-3): 20 to 30 ng/mL | blood trough level ([1]; low-dose 0.4 mg/kg BID, months 3-6): 11 to 20 ng/mL | NODAT (new onset of diabetes after transplant) incidence ([1]; mid dose, 6 month): 5.7% | NODAT (new onset of diabetes after transplant) incidence ([1]; mid dose, 6 month, listed as Voclosporin): 5.7% | Central BPAR (biopsy proven acute rejection), patients (incidence) ([1]; mid dose, N = 77, 6 month post-transplantation): 7 (9.1%) | blood trough level ([1]; mid-dose 0.6 mg/kg BID, months 0-3): 35 to 50 ng/mL | inhibition of norovirus replication [2]: inhibit norovirus replication in a CypA-dependent manner and more effectively than CsA | cytotoxicity [3]: did not | Conc ([4]; 0 h): 2910 nM | Conc ([4]; 24 h): 2790 nM | loss of compound from solution ([4]; 24 h at 37° C. in glass without cells): No significant loss | concentrations without toxicity to uninfected cells ([5]; batch 4): up to 10 μM | concentrations without toxicity to uninfected cells ([5]; unit not given): under 2 | EC50 [6]: 0.27 µM | Conc ([7]; 100 mg/ml BSA solution coating, 2 μM VCS, 0 h): 550 ± 210 nM | Conc ([7]; 100 mg/ml BSA solution coating, 2 μM VCS, 2 h): 100 ± 40 nM | Conc ([7]; 0.2% Tween-40 solution coating, 2 μM VCS, 0 h): 560 ± 350 nM | Conc ([7]; 0.2% Tween-40 solution coating, 2 μM VCS, 2 h): 90 ± 40 nM | Conc ([7]; 1% PEG-3350 solution coating, 2 μM VCS, 0 h): 510 ± 160 nM | Conc ([7]; 1% PEG-3350 solution coating, 2 μM VCS, 2 h): 90 ± 20 nM | Conc ([7]; Uncoated plastic, 2 μM VCS, 0 h): 560 ± 250 nM | Conc ([7]; Uncoated plastic, 2 μM VCS, 2 h): 130 ± 70 nM | original stock concentration recovered ([7]; t=0): ~27% | protection of SARS-CoV-2 infected cells compared with the pharmaceutical formulation [8]: did not confer the same level of protection | Conc ([9]; 0.2 μM supplied solution, 0 h): 0.33 µM | Conc ([9]; 0.2 μM supplied solution, 24 h, below detection limit): <0.07* μM | Conc ([9]; 0.4 μM supplied solution, 0 h): 0.45 µM | Conc ([9]; 0.4 μM supplied solution, 24 h): 0.10 µM | Conc ([9]; 0.8 μM supplied solution, 0 h): 0.99 µM | Conc ([9]; 0.8 μM supplied solution, 24 h): 0.15 µM | Conc ([9]; 1.6 μM supplied solution, 0 h): 1.77 µM | Conc ([9]; 1.6 μM supplied solution, 24 h): 0.35 µM | Conc ([9]; 3.2 μM supplied solution, 0 h): 2.91 µM | Conc ([9]; 3.2 μM supplied solution, 24 h): 0.82 µM | EC50 [10]: ~0.4 µM | concentration preserving viability of infected cells at level of mock-infected/uninfected cells ([10]; Vero E6, 3 days): 0.8 µM | detected concentration in the medium of infected cells ([11]; after 24 h treatment with 25 μM VCS, standard plastic labware): 0.68 µM | VCS lost due to plastic binding ([11]; considering a […]% reduction due to cellular binding or uptake): 90% | bioavailable amount of what was added initially when using plastic ([11]; plastic labware): ~10% | increase of binding affinity to calcineurin compared to CsA [12]: up to five-fold | reduction in SARS-CoV-2 infectious progeny titers [13]: more than 1.5 log | times lower EC50 compared to the other compounds tested [14]: 18-45 times | EC50 [14]: 0.22 ± 0.01 µM | CC50 [15]: ~4 µM | concentration above which viral titer was reduced to the limit of detection ([16]; Vero E6, FIG. 2A, unit not given): above 1.00 | amount of SARS-CoV-2 infected cells, fluorescent staining of viral NSP4 ([16]; Vero E6, FIG. 2C): reduced the amount of SARS-CoV-2 infected cells in a dose-dependent manner | SARS-CoV-2 viral load and CPEs compared to the tacrolimus group ([17]; 6 capsules of 7.9 mg BID): more efficacious reduction in viral load, and less severe CPEs | graft rejections, diabetes and adverse effects compared to the tacrolimus group [17]: comparable or lower incidences of graft rejections, diabetes and adverse effects | cytotoxicity in mock-infected cells compared with the pharmaceutical formulation [18]: less cytotoxicity

COc1c(C)c2c(c(O)c1C/C=C(\C)CCC(=O)O)C(=O)OC2 [mycophenolate, mycophenolic acid]
EC50 [6, 21]: 3.1 µM

C=CC[C@@H]1/C=C(\C)C[C@H](C)C[C@H](OC)[C@H]2O[C@@](O)(C(=O)C(=O)N3CCCC[C@H]3C(=O)O[C@H](/C(C)=C/[C@@H]3CC[C@@H](O)[C@H](OC)C3)[C@H](C)[C@@H](O)CC1=O)[C@H](C)C[C@@H]2OC [tacrolimus, reference compound]
blood trough level ([1]; standard dose 0.05 mg/kg BID, months 0-3): 7 to 20 ng/mL | blood trough level ([1]; standard dose 0.05 mg/kg BID, months 0-6 as printed): 5 to 15 ng/mL | Nankivell eGFR ([1]; standard dose group): 69 mL/min | Graft survival ([1]; standard dose, 6 month): 97.7% | NODAT (new onset of diabetes after transplant) incidence ([1]; standard dose, 6 month): 16.4% | Patient survival ([1]; standard dose, 6 month): 97.7% | NODAT (new onset of diabetes after transplant) incidence ([1]; standard dose, 6 month, listed as Tacrolimus): 16.4% | Central BPAR (biopsy proven acute rejection), patients (incidence) ([1]; standard dose, N = 86, 6 month post-transplantation): 5 (5.8%) | cytotoxicity [3]: did not display much cytotoxicity | concentration after which compound-related cytotoxicity was observed [5]: above 25 μM | concentration after which compound-related cytotoxicity was observed ([5]; listed as Tacrolimus): > 25000 nM | EC50 [6, 21]: 12 µM | Conc ([7]; plastic labware, 0.8 μM stock solution, 0 h): 850 nM | % rem [7, 22]: 76% | Conc [7, 22]: 650 nM | loss by binding to plastic ([7]; plastic labware, 2 h): 24% | EC50 ([8]; Severe acute respiratory syndrome coronavirus 2, Vero C1008, solutions prepared from pure powder, read-out: EC50, inhibition of SARS-CoV-2 in Vero E6 cells): ~15 µM | EC50 [10]: ~25 µM | protection of infected cells from virus-induced cytopathic effects ([10]; dosages up to 25 μM): did not protect | reduction in SARS-CoV-2 infectious progeny titers ([13]; 3.2 μM, glass labware, Calu-3, 24 h p.i., FIG. 6A): ~0.5 log | EC50 [14]: 10 ± 1 µM | activity on SARS-CoV-2 replication in a previous report [19]: no activity

CCO [50% ethanol, ethanol]
amount of infectious SARS-CoV-2 remaining [20]: < 100 PFU/ml

CO[C@H]1C[C@@H]2CC[C@@H](C)[C@@](O)(O2)C(=O)C(=O)N2CCCC[C@H]2C(=O)O[C@H]([C@H](C)C[C@@H]2CC[C@@H](OCCO)[C@H](OC)C2)CC(=O)[C@H](C)/C=C(\C)[C@@H](O)[C@@H](OC)C(=O)[C@H](C)C[C@H](C)/C=C/C=C/C=C/1C [EVL, everolimus]
inhibitory / antiviral effect in CPE reduction assay [14]: did not show an inhibitory effect

COc1c(C)c2c(c(O)c1C/C=C(\C)CCC(=O)OCCN1CCOCC1)C(=O)OC2 [MMF, mycophenolate mofetil]
inhibitory / antiviral effect in CPE reduction assay [14]: apparent antiviral effect
